Laboratory results reported in patent US20250034170A1, “SMALL MOLECULE MODULATORS OF GLUCOCEREBROSIDASE ACTIVITY AND USES THEREOF” (Vanqua Bio, Inc., priority 2021, published 2025).

target: T1, GCase (Homo sapiens, UniProt P04062); test: activation of GCase in a live cell PFB assay in HELA cells; format: cell-based; conditions: EC50 given as range classes
T1 construct: endogenous in cells; host or cells: HeLa cells
T1 sequence (P04062 40-536): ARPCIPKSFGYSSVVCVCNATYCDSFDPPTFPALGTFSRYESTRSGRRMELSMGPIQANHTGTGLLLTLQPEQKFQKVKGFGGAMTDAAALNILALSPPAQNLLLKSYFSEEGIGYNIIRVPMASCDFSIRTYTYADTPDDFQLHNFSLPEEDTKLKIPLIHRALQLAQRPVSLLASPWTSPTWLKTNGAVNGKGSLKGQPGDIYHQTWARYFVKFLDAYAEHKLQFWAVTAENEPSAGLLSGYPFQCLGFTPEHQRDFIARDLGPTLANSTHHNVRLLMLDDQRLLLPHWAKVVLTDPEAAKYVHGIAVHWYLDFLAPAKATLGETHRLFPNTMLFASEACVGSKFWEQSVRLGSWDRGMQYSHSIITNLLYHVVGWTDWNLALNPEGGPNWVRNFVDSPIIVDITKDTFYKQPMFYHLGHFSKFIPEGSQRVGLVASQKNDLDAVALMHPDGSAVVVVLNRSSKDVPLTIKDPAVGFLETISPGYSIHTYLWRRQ
Protocol: Exemplary compounds were evaluated for activation of GCase in a live cell PFB assay in HELA cells (essentially as described in Ysselstein et al., “LRRK2 kinase activity regulates lysosomal glucocerebrosidase in neurons derived from Parkinson's disease patients” Nature Communications (2019) 10:5570). […] EC50 ranges: A: <10 μM; B: >10-50 μM; C: >50-100 μM; D: >100 μM.

Structure (SMILES)	EC50
Cc1ncc(N2CC3(CCN(c4cnc5cnn(C6COC6)c5n4)C3)C2)c(C(F)(F)F)n1 [Cmpd 597]	> 100 µM
Cc1nn(CC(F)F)c2nc(N3CC4(CC3=O)CN(c3ccnc(C(F)(F)F)c3)C4)cnc12 [Cmpd 1007]	< 10 µM
COc1nn(CC(F)F)c2nc(N3CCC4(CCN(c5ccc(C(F)(F)F)nc5)C4)CC3)cnc12 [Cmpd 833]	< 10 µM
FC(F)Cn1ncc2ncc(N3CCOC4(CCN(c5cccc(C(F)(F)F)n5)CC4)C3)nc21 [Cmpd 211]	10 to 50 µM
Cc1nc(N2CC3(CCN(c4ccc5c(C)nn(CC(F)F)c5n4)CC3)CC2=O)cc(C(F)(F)F)n1 [Cmpd 628]	< 10 µM
FC(F)Cn1ncc2ncc(N3CC4(CCN(c5cncc(C(F)(F)F)c5)C4)C3)nc21 [Compound 184, 2-[1-(2,2-difluoroethyl)-1H-pyrazolo[3,4-b]pyrazin-6-yl]-6-[5-(trifluoromethyl)pyridin-3-yl]-2,6-diazaspiro[3.4]octane]	10 to 50 µM
Cc1nc(N2CCC3(CCN(c4cnc5c(C)nn(CC(F)(F)F)c5n4)C3)C2)cc(C(F)(F)F)n1 (centres unmarked) [Cmpd 604]	> 100 µM

same assay, conditions: activation of GCase, EC50 ranges

Structure (SMILES)	EC50
CCN1C(=O)N(c2cnc3cnn(CC(F)F)c3n2)C(=O)C12CCN(c1ccc(C(F)(F)F)nc1)CC2 [Cmpd 861]	< 10 µM
FC(F)Cn1ncc2ncc(N3CC4(CCN(c5ncccc5C(F)(F)F)CC4)C3)nc21 [Compound 123, 2-[1-(2,2-difluoroethyl)-1H-pyrazolo[3,4-b]pyrazin-6-yl]-7-[3-(trifluoromethyl)pyridin-2-yl]-2,7-diazaspiro[3.5]nonane]	10 to 50 µM
O=C1N(c2cc(C(F)(F)F)ccn2)CCC12CCN(c1cncc(-n3ccnc3)n1)CC2 [Cmpd 242]	10 to 50 µM
FC(F)Cn1ncc2ncc(N3CCC4(CCN(c5ccnc(C(F)(F)F)c5)C4)CC3)nc21 [Compound 154, 8-[1-(2,2-difluoroethyl)-1H-pyrazolo[3,4-b]pyrazin-6-yl]-2-[2-(trifluoromethyl)pyridin-4-yl]-2,8-diazaspiro[4.5]decane]	< 10 µM
O=C1N(c2cc(C(F)(F)F)ccn2)CCC12CCN(c1cnc3cnn(C4COC4)c3n1)CC2 [Cmpd 273]	10 to 50 µM
CC[C@@H]1N(c2ccnc(C(F)(F)F)c2)C(=O)CC12CCN(c1cnc3cnn(CC(F)F)c3n1)CC2 [Cmpd 855]	10 to 50 µM
Cc1nn(CC(F)F)c2nc(N3CCC4(CC3)CN(c3cc(C(F)(F)F)ccn3)C4)cnc12 [Cmpd 490]	< 10 µM
Cc1nc(N2CC3(CCN(c4cnc5c(C)nn(C6COC6)c5n4)CC3)CC2=O)cc(C(F)(F)F)n1 [Cmpd 459]	10 to 50 µM
Cc1nn(CC(F)F)c2nc(N3CCC4(CC3)CC(=O)N(c3cncc(C(F)(F)F)n3)C4)cnc12 [Cmpd 280]	10 to 50 µM
O=C1N(c2cc(C(F)(F)F)ccn2)CCC12CCN(c1ncc3cnn(CC(F)F)c3n1)CC2 [Cmpd 285]	10 to 50 µM
CCCn1c(N2CCC3(CCN(c4cc(C(F)(F)F)nc(C)n4)C3)CC2)nc2c(cnn2CC(F)F)c1=O [Cmpd 1106]	< 10 µM
FC(F)Cn1ncc2ncc(N3CCC4(CC3)CCN(c3ncccc3C(F)(F)F)C4)nc21 [Compound 145, 8-[1-(2,2-difluoroethyl)-1H-pyrazolo[3,4-b]pyrazin-6-yl]-2-[3-(trifluoromethyl)pyridin-2-yl]-2,8-diazaspiro[4.5]decane]	10 to 50 µM
Cc1cc(N2CC3(CCN(c4ncc5c(C)nn(CC(F)F)c5n4)C3)C2)nc(C)n1 [Cmpd 641]	10 to 50 µM
CC1N(c2cc(C(F)(F)F)ccn2)CCC12CCN(c1cnc3cnn(CC(F)F)c3n1)CC2 (centres unmarked) [Cmpd 747]	10 to 50 µM
Cc1cc(N2CC3(CCN(c4cnc5c(C)nn(CC(C)(F)F)c5n4)C3)C2)nc(C(F)(F)F)n1 [Cmpd 1129]	< 10 µM
FC(F)Cn1ncc2cnc(N3CCC4(CC3)CN(c3cc(C(F)(F)F)ccn3)C4)nc21 [Cmpd 492]	10 to 50 µM
FC(F)Cn1ncc2cnc(N3CC4(CCN(c5ccnc(C(F)(F)F)c5)C4)C3)nc21 [Cmpd 351]	< 10 µM
CC(c1cnc(C(F)(F)F)nc1)N1CC2(CCN(c3cnc4cnn(CC(F)F)c4n3)CC2)CC1=O (centres unmarked) [Cmpd 914]	10 to 50 µM
Cc1cnc(CN2CC3(CCN(c4cnc5cnn(CC(F)F)c5n4)CC3)CC2=O)s1 [Cmpd 975]	10 to 50 µM
O=C1N(c2ccc(C(F)(F)F)nc2)C(=O)C2(CCN(c3cnc4cnn(CC(F)F)c4n3)CC2)N1CCCC(F)(F)F [Cmpd 881]	< 10 µM
O=C1CC2(CCN(c3cnc4cnn(CC(F)F)c4n3)CC2)CN1Cc1cc(F)ccc1F [Cmpd 447]	< 10 µM
COc1nn(CC(F)F)c2nc(N3CCC4(CN(c5ccnc(C(F)(F)F)c5)C4)C3)cnc12 [Cmpd 936]	< 10 µM
Cc1nc(N2CC3(CCN(c4cnc5cnn(C6COC6)c5n4)C3)C2)cc(C(F)(F)F)n1 [Cmpd 1063]	10 to 50 µM
Cc1nc(C(F)(F)F)ncc1N1CCC2(CCN(c3ncc4c(C)nn(CC(F)(F)F)c4n3)C2)C1 (centres unmarked) [Cmpd 658]	10 to 50 µM
FC(F)(F)c1cc(N2CCCC3(C2)CN(c2cnc4cn(Cc5ccccc5)nc4n2)C3)ccn1 [Compound 103, 2-{2-benzyl-2H-pyrazolo[3,4-b]pyrazin-6-yl}-6-[2-(trifluoromethyl)pyridin-4-yl]-2,6-diazaspiro[3.5]nonane]	10 to 50 µM

Structure (SMILES)	EC50
FC(F)Cn1ncc2ncc(N3CCC4(CN(c5ccnc(OCC(F)(F)F)n5)C4)C3)nc21 [Cmpd 960]	10 to 50 µM
O=C1CC2(CCN1c1ccc(C(F)(F)F)cn1)CN(c1cnc3cnn(CC(F)F)c3n1)C2 [Cmpd 912]	10 to 50 µM
O=C1CC2(CCN(c3cnc4cnn(CC(F)F)c4n3)CC2)CN1c1cccc(C(F)(F)F)n1 [Compound 101, 8-[1-(2,2-difluoroethyl)-1H-pyrazolo[3,4-b]pyrazin-6-yl]-2-[6-(trifluoromethyl)pyridin-2-yl]-2,8-diazaspiro[4.5]decan-3-one]	10 to 50 µM
Cc1nc(N2CCC3(CCN(c4cnc5c(C)nn(C6COC6)c5n4)C3)C2)cc(C(F)(F)F)n1 (centres unmarked) [Cmpd 543]	10 to 50 µM
FC(F)(F)c1cc(N2CCC3(C2)CN(c2ncc4cnn(C5COC5)c4n2)C3)ccn1 [Cmpd 376]	10 to 50 µM
Cc1nc(N2CCC3(C2)CN(c2ncc4cnn(CC(F)F)c4n2)C3)cc(C(F)(F)F)n1 [Cmpd 553]	10 to 50 µM
Cc1nc(N2CCC3(CCN(c4cnc5cnn(CC(F)F)c5n4)C3)C2=O)cc(C(F)(F)F)n1 (centres unmarked) [Cmpd 516]	< 10 µM
FC(F)Cn1ncc2ncc(N3CC4(CCCN(c5cc(C(F)(F)F)ccn5)C4)C3)nc21 [Compound 21, 2-[1-(2,2-difluoroethyl)-1H-pyrazolo[3,4-b]pyrazin-6-yl]-6-[4-(trifluoromethyl)pyridin-2-yl]-2,6-diazaspiro[3.5]nonane]	10 to 50 µM
FC(F)Cn1ncc2ncc(N3CC4(CCN(c5cccnc5C(F)(F)F)CC4)C3)nc21 [Compound 129, 2-[1-(2,2-difluoroethyl)-1H-pyrazolo[3,4-b]pyrazin-6-yl]-7-[2-(trifluoromethyl)pyridin-3-yl]-2,7-diazaspiro[3.5]nonane]	10 to 50 µM
Cc1nc(N2CC3(CCN(c4cnc5c(C)nn(CC(F)F)c5n4)CC3)C2)cc(C(F)(F)F)n1 [Cmpd 568]	< 10 µM
Cc1ncc(N2CC3(CCN(c4cnc5cnn([C@H]6CCOC6)c5n4)C3)C2)c(C(F)(F)F)n1 [Cmpd 652]	> 100 µM
O=C1CC2(CC3CCC2CN3c2cnc3cnn(CC(F)F)c3n2)CN1c1ccc(C(F)(F)F)nc1 (centres unmarked) [Cmpd 865]	10 to 50 µM
Cc1nc(N2CC3(CCN(c4ncc5cn(C(F)F)nc5n4)C3)C2)cc(C(F)(F)F)n1 [Cmpd 651]	10 to 50 µM
Cc1nc(N2CC3(CCN(c4cnc5c(C)nn(C6COC6)c5n4)C3)C2)cc(C(F)(F)F)n1 [Cmpd 455]	10 to 50 µM
O=C1N(c2cnc3cnn(CC(F)F)c3n2)CCCC12CN(c1ccc(C(F)(F)F)cn1)C2 [Cmpd 343]	> 100 µM
FC(F)c1ccc(N2CCCC3(C2)CN(c2cnc4cnn(CC(F)(F)F)c4n2)C3)cn1 [Compound 158, 6-[6-(difluoromethyl)pyridin-3-yl]-2-[1-(2,2,2-trifluoroethyl)-1H-pyrazolo[3,4-b]pyrazin-6-yl]-2,6-diazaspiro[3.5]nonane]	> 100 µM
O=C1CCC2(CN(c3cnc4cnn(CC(F)F)c4n3)C2)CN1c1ccc(C(F)(F)F)cn1 [Cmpd 315]	10 to 50 µM
Cc1nc(N2CCC3(C2)CN(c2cnc4cnn(C5COC5)c4n2)C3)cc(C(F)(F)F)n1 [Cmpd 555]	< 10 µM
CCC1N(c2cnc(C(F)(F)F)nc2)C(=O)CC12CCN(c1cnc3cnn(CC(F)F)c3n1)CC2 (centres unmarked) [Cmpd 905]	10 to 50 µM
FC(F)Cn1ncc2ncc(N3CCC4(CCC(Oc5ccc(C(F)(F)F)cn5)C4)CC3)nc21 (centres unmarked) [Cmpd 694]	10 to 50 µM
FC(F)Cn1ncc2ncc(N3CCC4(CC3)CC(COc3cccc(C(F)(F)F)n3)C4)nc21 [Compound 85, 7-[1-(2,2-difluoroethyl)-1H-pyrazolo[3,4-b]pyrazin-6-yl]-2-({[6-(trifluoromethyl)pyridin-2-yl]oxy}methyl)-7-azaspiro[3.5]nonane]	10 to 50 µM
O=C1N(c2cncc(C(F)(F)F)n2)CCC12CCN(c1ncc3cnn(CC(F)F)c3n1)CC2 [Cmpd 287]	> 100 µM
Cc1nn(CC(F)F)c2nc(N3CCC4(CC3)CC(=O)N(c3cc(C(F)(F)F)ccn3)C4)cnc12 [Cmpd 283]	< 10 µM
Cc1nc(N2CCC3(C2)CN(c2ncc4c(C)nn(CC(F)F)c4n2)C3)cc(C(F)(F)F)n1 [Cmpd 577]	10 to 50 µM
